Common to all, as to type: functional
In one assay the test system is MCF7. Description: Cytotoxicity against human MCF7 cells. To be noted: read-out: ED50 (the source's name).
In a further assay the test system is A549. The experiment in a line: Cytotoxicity against human A549 cells. The note with it: read-out: ED50 (the source's name).
In a further assay the test system is P388. Description: Cytotoxicity against mouse P388 cells.

On to `CCCCCCCCCC[C@@H](O)[C@@H]1CC[C@H]([C@H]2CC[C@@H]([C@@H](O)CCCCCCCCCCC(O)CC3=CC(C)OC3=O)O2)O1` (stereo partly drawn), for which the EC50 in the assay with MCF7 and in the assay on A549 was under 1 ng/mL throughout.

For the molecule `CCCCCCCCC[C@@H](O)[C@@H](O)[C@@H]1CC[C@@H]([C@@H]2CC[C@@H]([C@@H](O)CCCCCCCCCCCCC3=CC(C)OC3=O)O2)O1` (stereo partly drawn) [ROLLINICIN], in the assay on P388, the ED50 is on record as 2.9 ×10⁻⁸ ug/ml.

These data come from ChEMBL document CHEMBL1147297, “4-Hydroxy-25-desoxyneorollinicin, a new bistetrahydrofuranoid acetogenin from Rollinia papilionella” (1989).
